{"source": "patent US20240358984A1", "about": "“Ultrasound delivery” (ACT Therapeutics Ltd, priority 2021, published 2024)", "test_system": "subcutaneous prostate cancer model (PC3)", "experiment": "Tumour specific uptake of Evans Blue after ACT", "assay_type": "in vivo, mice", "details": "Enhancement 0.5 MHz, MI 0 to 0.4, 30 min after treatment", "method": "To investigate the effect of MI variance of the US Enhancement field, tumour specific uptake of Evans Blue (EB, fluorescent dye) has been investigated in a subcutaneous prostate cancer model (PC3) in mice. Five groups with Enhancement insonation MIs of 0, 0.1, 0.2, 0.3 and 0.4 were investigated (N=3 animals per group). […] 30 min after treatment, the tumors were excised and the amount of EB was measured by spectrophotometry at 620 nm.", "data": [{"smiles": "Cc1cc(-c2ccc(/N=N/c3ccc4c(S(=O)(=O)O)cc(S(=O)(=O)O)c(N)c4c3O)c(C)c2)ccc1/N=N/c1ccc2c(S(=O)(=O)O)cc(S(=O)(=O)O)c(N)c2c1O", "note": "[Evans Blue]", "values": [{"measurement": "tumour tissue uptake as function of Enhancement MI", "result": "increases from no US (MI=0) to MI=0.1 and further with MI=0.2, but then drops again with MI=0.3 and further with M=0.4"}]}]}
